{
  "source": "patent US20240415919A1",
  "about": "“COMPOSITIONS AND METHODS FOR TREATMENT OF AUTOIMMUNE DISORDERS AND CANCER” (Dana-Farber Cancer Institute, Inc., priority 2021, published 2024)",
  "key": {"[1]": {"test_system": "fully-mismatched kidney transplants", "assay": "BALB/c to B6 kidney transplantation with FL9-SA vaccination", "format": "in vivo, mouse", "description": "The left kidney of BALB/c mice (H-2^d) was recovered using a full-length ureter and transplanted into a B6 host (H-2^b). The ureter of the remaining native kidney was then ligated on post-operative day 2-4 to inhibit native kidney function. Surgical success was determined if mice survived seven days post-surgery (POD). Transplanted B6 hosts were treated intraperitoneally with FL9-SA (50 μg), or PBS emulsified in Adjuvant (Addavax™), once a week starting POD2. On day 20 following kidney transplantation (n=5-7/group), allograft draining lymphoid tissues were assessed for FL9-specific Treg (Qa-1-FL9 Tet^+), Tfh, GC B and plasma cells, DSA levels in sera, capillary C4d deposition and gross anatomy of kidney allografts. Survival of kidney allografts was measured by survival of recipients with absence of native kidney function."}, "FL9 T cells": {"test_system": "FL9 T cells", "assay": "In vitro FL9 T cell proliferation and killing of activated CD4 cells", "format": "cell-based"}, "FL9.2 T cells": {"test_system": "FL9.2 T cells", "assay": "FL9 peptide immunization of hosts adoptively transferred with FL9.2 T cells", "format": "in vivo, mouse", "conditions": "i.p. immunization with peptide in CFA; CD45.1+ B6 or TCRα-/- hosts", "description": "CD45.1+B6 hosts were adoptively transferred with FL9.2 T cells and immunized i.p. with FL9 in CFA or no peptide (CFA alone) on day 0. Three days later, activation (CD69) proliferation of FL9.2 T cells (Ki67) was measured.\nCD45.1^+ B6 or TCRα^−/− mice were transferred with CFSE labelled 2×10^6 FL9.2 Tg T cells followed by i.p. immunization with 100 μg FL9 or FL9-68 peptides in CFA. Proliferation and activation of FL9.2 Tg T cells in the adoptive hosts were analzyed by assessing CFSE dilution, Ki67 and CD69 expression at day 3 and 6 after transfer.\nCD45.1^+B6 or TCRα^−/− mice were transferred with CFSE labelled 2×10^6 FL9.2 Tg T cells followed by i.p. immunization with 100 μg FL9 or FL9-68 peptides in CFA. Proliferation and activation of FL9.2 Tg T cells in the adoptive hosts were analzyed by assessing CFSE dilution, Ki67 and CD69 expression at day 3 and 6 after transfer."}, "Balb/C heart allografts": {"test_system": "Balb/C heart allografts", "assay": "Balb/C heart transplantation into skin-sensitized B6 hosts after peptide vaccination", "conditions": "for heart graft survival: compared to adjuvant alone; for graft pathology (C4d deposition, immune cell infiltration): heart allografts; for donor-specific antibody (DSA): heart graft / skin-sensitized recipients", "experimental": "After selecting FL9-SA, we performed BALB/c to B6 skin transplantation with or without Hsp60p2l6 and FL9-SA, followed by heart transplantation.\nB6 mice were immunized i.p with 50 μg FL9-68/IFA or with IFA alone at day 0 and 7 followed by a BALB/C→B6 skin transplant at day 10. FL9-68/IFA or IFA immunization was repeated on days 10, 13 and 16. At day 27, fully vascularized Balb/C hearts were transplanted into the abdominal cavity of B6 mice using microsurgical techniques, as previously described (Cai et al., 2016). Heart graft survival was determined by monitoring palpable heart beating. At day X after skin sensitization, levels of FL9 T cells, Tfh, GC B and plasma cells in dLNs were analyzed by flowcytometry. Serum was collected from the heart graft recipient B6 mice that were either immunized with FL9-68/IFA or IFA alone at day 16. […] Histological analysis of heart grafts was performed by InvivoEx company using anti-C4d Ab (Hycult Biotech) and Vector Blue Alkaline Phosphatase Substrate Kit (Vector Laboratories).\nB6 mice were immunized i.p with 50 μg FL9-68-Adjuvant (IFA or AddaVax™) or Adjuvant alone at day 0 and 7 followed by a BALB/C→B6 skin transplant at day 10. FL9-68-Adj or Adj immunization was repeated on days 10, 13 and 16. At day 27, fully vascularized Balb/C hearts were transplanted into the abdominal cavity of B6 mice using microsurgical techniques, as previously described^36. Heart graft survival was determined by monitoring palpable heart beating. At day 16 after skin sensitization, levels of FL9 T cells, Tfh, GC B and plasma cells in dLNs were analyzed by flowcytometry. Serum was collected from the heart graft recipient B6 mice that were either immunized with FL9-68/IFA or IFA alone at day 16. […] Histological analysis of heart grafts was performed by InvivoEx company using anti-C4d Ab (Hycult Biotech) and Vector Blue Alkaline Phosphatase Substrate Kit (Vector Laboratories)."}, "EL4 tumor cells (Qa-1+)": {"test_system": "EL4 tumor cells (Qa-1+)", "assay": "EL4 tumor growth in B6 mice", "format": "in vivo, mouse", "conditions": "EL4 (Qa-1 WT) in B6 mice; vs isotype control / IFA alone; listed as FL9-68 SA", "description": "FIG. 9A-B provides a graphical representation showing that the depletion of CD8 Treg enhances anti-tumor immune responses. WT B6 mice were inoculated with 2×10^5 EL4 (Qa-1 WT) orEL4-Qa-1 KO cells. Mice received EL4 WT or EL4 Qa-1 KO cells were treated with four different conditions: 1) PBS/IFA+ isotype control Ab (mIgG1), 2) PBS/IFA+ anti-Ly49F Ab, 3) PBS/IFA+anti-Qa-1 Ab and 4) FL9.68/IFA+isotype Ab (mIgG1). 100 ug of FL9.68 peptide (day 0 and day 10), 50 ug of anti-Ly49F Ab and 100 ug of anti-Qa-1 Ab (day 0, 3 and 6) were injected respectively. A) Status of Ly49+CD8 cells in the blood at day 3 and 6 after tumor induction (panel A). Tumor growth in mice inoculated with EL4 WT (left) andEL4 Qa-1 KO (right) tumor cells until day 7. […] This effect was not observed in mice inoculated with EL4-Qa-1KO tumor cells (panel B)."}, "MCMV": {"test_system": "MCMV", "assay": "Murine MCMV infection model with FL9-68 vaccination", "format": "in vivo, mouse", "description": "FIG. 10A-C provides a graphical representation showing FL9-68-dependent mobilization of CD8 Treg dampens autoantibody responses during MCMV infection. WT B6 mice were infected with MCMV (2×10^5 pfu) and vaccinated with (100 ug/dose) FL9-68 in IFA or IFA alone at day 0, 8 and 12. Mice were bled at day 3, 10 and 18 and levels of anti-dsDNA Ab (panel A), viral titer (panel B) and frequency of activated CD8 Treg (panel C, Ly49+NKG2D+CD8) are shown."}, "[2]": {"test_system": "I-Ab/Ova323-339 Tet+ CD4 cells", "assay": "FL9-68 vaccination followed by Ova323-339/CFA immunization", "format": "in vivo, mouse", "description": "FIG. 58(E) CD45.1^+ B6 mice that were vaccinated with FL9-68 in CFA or CFA alone on day 0 were immunized with Ova323-339 peptide in CFA on day 6. The frequency of I-Ab/Ova323-339 Tet^+ CD4 cells in activated (CD44^+) CD4 cells in the spleen and dLN was analyzed on day 14."}},
  "note": "Values joined by “and” are separate entries in the source; they are usually repeats but may differ in a detail not shown here. Identical values can stand only once. “Also recorded” adds a separate entry of the source.",
  "data": [
    {"sequence": "FYAEATLML [FL9-68, FL9 peptide variant containing a P→L substitution at pos 7; superagonist for CD8 Treg]", "values": [
      {"measurement": "CD44+ CD4 T-cell memory responses to irradiated donor lymphocytes", "setting": "[1]; CD4+ T cells from B6 hosts", "result": "reduced CD44^+ CD4 T-cell memory responses"},
      {"measurement": "increase in FL9-specific Treg measured by FL9-Qa-1 tetramers", "setting": "[1]; allograft-draining lymph nodes, day 20 after kidney transplantation", "result": "> 7", "unit": "fold"},
      {"measurement": "mean survival time of kidney allograft", "setting": "[1]; controls 20.5 days", "result": 40, "unit": "days"},
      {"measurement": "donor-specific antibody (DSA)", "setting": "[1]; kidney graft recipients", "result": "markedly reduced donor specific Ab generation; also recorded: significant decrease in DSA"},
      {"measurement": "GC response: frequency of Tfh, activated GC B and plasma cells", "setting": "[1]; kidney graft recipients, vs IFA alone", "result": "markedly reduced the GC response"},
      {"measurement": "C4d deposition in peritubular capillaries of kidney allografts", "setting": "[1]; mouse, in vivo", "result": "reduced C4d deposition"},
      {"measurement": "proliferation of FL9 T cells and killing of activated CD4 cells", "setting": "FL9 T cells", "result": "promoted proliferation of FL9 T cells leading to enhanced killing of activated CD4 cells"},
      {"measurement": "in vivo activation/proliferation of transferred FL9 TCR+ CD8 T cells", "setting": "FL9.2 T cells", "result": "activated FL9 TCR^+ CD8 T cells; also recorded: activates FL9 T cells in vivo"},
      {"measurement": "increase in FL9-specific CD8 cells within the Ly49+ CD8 T cell pool", "setting": "Balb/C heart allografts; B6 mice bearing Balb/C skin allograft", "result": "4-5 fold"},
      {"measurement": "heart graft survival", "setting": "Balb/C heart allografts", "result": "significantly prolonged graft survival times; also recorded: promotes graft survival"},
      {"measurement": "heart graft survival", "setting": "Balb/C heart allografts; listed as SA peptide", "result": "significantly prolonged graft survival"},
      {"measurement": "graft pathology (C4d deposition, immune cell infiltration)", "setting": "Balb/C heart allografts", "result": "markedly diminished graft pathology; also recorded: inhibits graft tissue injury"},
      {"measurement": "graft pathology (C4d deposition, immune cell infiltration)", "setting": "Balb/C heart allografts; listed as FL9 SA peptide", "result": "maintenance of tissue integrity"},
      {"measurement": "donor-specific antibody (DSA)", "setting": "Balb/C heart allografts", "result": "decrease of donor specific Ab (DSA) generation; also recorded: reduced donor-specific antibody (DSA) responses; also recorded: inhibits production of DSA"},
      {"measurement": "donor-specific antibody (DSA)", "setting": "Balb/C heart allografts; listed as FL9 SA peptide", "result": "reduced generation of donor specific antibodies"},
      {"measurement": "GC response: Tfh, GC B and plasma cells", "setting": "Balb/C heart allografts; heart graft recipients, vs IFA alone", "result": "significant reduction of these cells; also recorded: decreased Tfh, GC B and plasma cell formation; also recorded: significantly reduced GC responses; also recorded: inhibition of GC Ab response"},
      {"measurement": "alloreactive activated CD4 cells", "setting": "Balb/C heart allografts; recipient CD4 cells co-incubated with irradiated donor splenocytes", "result": "decrease in alloreactive activated CD4 cells"},
      {"measurement": "efficacy relative to Hsp60p216", "setting": "Balb/C heart allografts; reduction in Tfh and mature B cells during sensitization, listed as FL9-SA", "result": "substantially more efficacious than Hsp60p2l6"},
      {"measurement": "EL4 tumor growth", "setting": "EL4 tumor cells (Qa-1+)", "result": "facilitated tumor growth"},
      {"measurement": "NKG2D+Ly49+ CD8 T cells (activated CD8 Treg)", "setting": "MCMV; mouse, in vivo", "result": "increase of NKG2D+Ly49^+ CD8 T cells"},
      {"measurement": "production of anti-dsDNA Ab", "setting": "MCMV; vaccination at days 0, 8 and 12 after viral infection", "result": "significantly reduced production of anti-dsDNA Ab"},
      {"measurement": "inhibition of the response of I-Ab/Ova323-339 tet+ CD4 cells", "setting": "[2]; FL9-68 in CFA day 0, Ova323-339/CFA day 6, analysis day 14", "result": "50% and > 50%"},
      {"measurement": "numbers or percent of non-specifically activated CD4 cells", "setting": "[2]; same experiment as E6", "result": "did not reduce the numbers or percent of non-specifically activated CD4 cells"}
    ]}
  ]
}
